Assay results published in ChEMBL document CHEMBL1275533, “In vitro antibacterial activity of vertilmicin and its susceptibility to modifications by the recombinant AAC6'-APH2'' enzyme” (2008).
In brackets after ≈: the same amount, converted by molar mass. Activity calls are given as the source filed them. The rule behind the calls is not given here.

Assays:
Citrobacter koseri [1] = assay: Antibacterial activity against non-gentamicin-resistant Citrobacter diversus clinical isolate after 18 hrs by agar dilution method; assay type: functional
Providencia rettgeri [2] = assay: Antibacterial activity against non-gentamicin-resistant Proteus rettgeri clinical isolate after 18 hrs by agar dilution method; assay type: functional
Klebsiella aerogenes [3] = assay: Antibacterial activity against non-gentamicin-resistant Enterobacter aerogenes clinical isolate after 18 hrs by agar dilution method; assay type: functional
Proteus mirabilis [4] = assay: Antibacterial activity against gentamicin-resistant Proteus mirabilis clinical isolate after 18 hrs by agar dilution method; assay type: functional
Citrobacter freundii [5] = assay: Antibacterial activity against non-gentamicin-resistant Citrobacter freundii clinical isolate assessed as susceptible isolates after 18 hrs by agar dilution method; assay type: functional
Citrobacter koseri [6] = assay: Antibacterial activity against gentamicin-resistant Citrobacter diversus clinical isolate after 18 hrs by agar dilution method; assay type: functional
Pseudomonas sp. [7] = assay: Antibacterial activity against non-gentamicin-resistant Pseudomonas spp. clinical isolate assessed as susceptible isolates after 18 hrs by agar dilution method; assay type: functional
[8] = system: Haemophilus parainfluenzae; assay: Antibacterial activity against non-gentamicin-resistant Haemophilus parainfluenzae clinical isolate after 18 hrs by agar dilution method; assay type: functional
Klebsiella aerogenes [9] = assay: Antibacterial activity against gentamicin-resistant Enterobacter aerogenes clinical isolate assessed as susceptible isolates after 18 hrs by agar dilution method; assay type: functional
Enterobacter cloacae [10] = assay: Antibacterial activity against gentamicin-resistant Enterobacter cloacae clinical isolate assessed as susceptible isolates after 18 hrs by agar dilution method; assay type: functional
Haemophilus influenzae [11] = assay: Antibacterial activity against non-gentamicin-resistant Haemophilus influenzae clinical isolate assessed as susceptible isolates after 18 hrs by agar dilution method; assay type: functional, organism-based
Proteus mirabilis [12] = assay: Antibacterial activity against gentamicin-resistant Proteus mirabilis clinical isolate assessed as susceptible isolates after 18 hrs by agar dilution method; assay type: functional
Staphylococcus aureus [13] = assay: Antibacterial activity against non-gentamicin-resistant Staphylococcus aureus clinical isolate after 18 hrs by agar dilution method; assay type: functional
Citrobacter freundii [14] = assay: Antibacterial activity against gentamicin-resistant Citrobacter freundii clinical isolate after 18 hrs by agar dilution method; assay type: functional
Haemophilus influenzae [15] = assay: Antibacterial activity against non-gentamicin-resistant Haemophilus influenzae clinical isolate after 18 hrs by agar dilution method; assay type: functional
Klebsiella aerogenes [16] = assay: Antibacterial activity against non-gentamicin-resistant Enterobacter aerogenes clinical isolate assessed as susceptible isolates after 18 hrs by agar dilution method; assay type: functional
Staphylococcus aureus [17] = assay: Antibacterial activity against gentamicin-resistant Staphylococcus aureus clinical isolate after 18 hrs by agar dilution method; assay type: functional
Enterobacter cloacae [18] = assay: Antibacterial activity against gentamicin-resistant Enterobacter cloacae clinical isolate after 18 hrs by agar dilution method; assay type: functional
[19] = system: Acinetobacter calcoaceticus; assay: Antibacterial activity against non-gentamicin-resistant Acinetobacter calcoaceticus clinical isolate assessed as susceptible isolates after 18 hrs by agar dilution method; assay type: functional
Staphylococcus aureus [20] = assay: Antibacterial activity against non-gentamicin-resistant Staphylococcus aureus clinical isolate assessed as susceptible isolates after 18 hrs by agar dilution method; assay type: functional
Pseudomonas aeruginosa [21] = assay: Antibacterial activity against gentamicin-resistant Pseudomonas aeruginosa clinical isolate after 18 hrs by agar dilution method; assay type: functional
Pseudomonas aeruginosa [22] = assay: Antibacterial activity against non-gentamicin-resistant Pseudomonas aeruginosa clinical isolate after 18 hrs by agar dilution method; assay type: functional
Enterococcus faecalis [23] = assay: Antibacterial activity against gentamicin-resistant Enterococcus faecalis clinical isolate assessed as susceptible isolates after 18 hrs by agar dilution method; assay type: functional, organism-based
Serratia marcescens = assay: Antibacterial activity against gentamicin-resistant Serratia marcescens clinical isolate after 18 hrs by agar dilution method; assay type: functional
Escherichia coli [24] = assay: Antibacterial activity against non-gentamicin-resistant Escherichia coli clinical isolate assessed as susceptible isolates after 18 hrs by agar dilution method; assay type: functional
Pseudomonas aeruginosa [25] = assay: Antibacterial activity against non-gentamicin-resistant Pseudomonas aeruginosa clinical isolate assessed as susceptible isolates after 18 hrs by agar dilution method; assay type: functional
Pseudomonas sp. [26] = assay: Antibacterial activity against gentamicin-resistant Pseudomonas spp. clinical isolate after 18 hrs by agar dilution method; assay type: functional
Escherichia coli [27] = assay: Antibacterial activity against gentamicin-resistant Escherichia coli clinical isolate assessed as susceptible isolates after 18 hrs by agar dilution method; assay type: functional
Enterobacter cloacae [28] = assay: Antibacterial activity against non-gentamicin-resistant Enterobacter cloacae clinical isolate assessed as susceptible isolates after 18 hrs by agar dilution method; assay type: functional
Pseudomonas sp. [29] = assay: Antibacterial activity against non-gentamicin-resistant Pseudomonas spp. clinical isolate after 18 hrs by agar dilution method; assay type: functional
[30] = system: Staphylococcus epidermidis; assay: Antibacterial activity against gentamicin-resistant Staphylococcus epidermidis clinical isolate after 18 hrs by agar dilution method; assay type: functional
[31] = system: Staphylococcus epidermidis; assay: Antibacterial activity against gentamicin-resistant Staphylococcus epidermidis clinical isolate assessed as susceptible isolates after 18 hrs by agar dilution method; assay type: functional
[32] = system: Acinetobacter calcoaceticus; assay: Antibacterial activity against non-gentamicin-resistant Acinetobacter calcoaceticus clinical isolate after 18 hrs by agar dilution method; assay type: functional
Providencia rettgeri [33] = assay: Antibacterial activity against non-gentamicin-resistant Proteus rettgeri clinical isolate assessed as susceptible isolates after 18 hrs by agar dilution method; assay type: functional
Morganella morganii [34] = assay: Antibacterial activity against gentamicin-resistant Morganella morganii clinical isolate after 18 hrs by agar dilution method; assay type: functional
Pseudomonas aeruginosa [35] = assay: Antibacterial activity against gentamicin-resistant Pseudomonas aeruginosa clinical isolate assessed as susceptible isolates after 18 hrs by agar dilution method; assay type: functional
Staphylococcus aureus [36] = assay: Antibacterial activity against gentamicin-resistant Staphylococcus aureus clinical isolate assessed as susceptible isolates after 18 hrs by agar dilution method; assay type: functional
Providencia rettgeri [37] = assay: Antibacterial activity against gentamicin-resistant Proteus rettgeri clinical isolate assessed as susceptible isolates after 18 hrs by agar dilution method; assay type: functional
Escherichia coli [38] = assay: Antibacterial activity against non-gentamicin-resistant Escherichia coli clinical isolate after 18 hrs by agar dilution method; assay type: functional
Enterococcus faecalis [39] = assay: Antibacterial activity against gentamicin-resistant Enterococcus faecalis clinical isolate after 18 hrs by agar dilution method; assay type: functional
Morganella morganii [40] = assay: Antibacterial activity against gentamicin-resistant Morganella morganii clinical isolate assessed as susceptible isolates after 18 hrs by agar dilution method; assay type: functional
Citrobacter koseri [41] = assay: Antibacterial activity against non-gentamicin-resistant Citrobacter diversus clinical isolate assessed as susceptible isolates after 18 hrs by agar dilution method; assay type: functional
Citrobacter freundii [42] = assay: Antibacterial activity against non-gentamicin-resistant Citrobacter freundii clinical isolate after 18 hrs by agar dilution method; assay type: functional
Pseudomonas sp. [43] = assay: Antibacterial activity against gentamicin-resistant Pseudomonas spp. clinical isolate assessed as susceptible isolates after 18 hrs by agar dilution method; assay type: functional

NCC[C@H](O)C(=O)N[C@@H]1C[C@H](N)[C@@H](O[C@H]2O[C@H](CN)[C@@H](O)[C@H](O)[C@H]2O)[C@H](O)[C@H]1O[C@H]1O[C@H](CO)[C@@H](O)[C@H](N)[C@H]1O [AMIKACIN]
MIC50 (Citrobacter koseri [1]): 1 µg/mL (≈ 1.71 µM) | MIC90 (Citrobacter koseri [1]): 2 µg/mL (≈ 3.42 µM) | MIC50 (Providencia rettgeri [2]): 2 µg/mL (≈ 3.42 µM) | MIC90 (Providencia rettgeri [2]): 32 µg/mL (≈ 54.6 µM) | MIC50 (Klebsiella aerogenes [3]): 1 µg/mL (≈ 1.71 µM) | MIC90 (Klebsiella aerogenes [3]): 2 µg/mL (≈ 3.42 µM) | MIC50 (Proteus mirabilis [4]): 4 µg/mL (≈ 6.83 µM) | MIC90 (Proteus mirabilis [4]): > 128 µg/mL | Activity (Citrobacter freundii [5]): 100% | MIC50 (Citrobacter koseri [6]): 32 µg/mL (≈ 54.6 µM) | MIC90 (Citrobacter koseri [6]): 64 µg/mL (≈ 109 µM) | Activity (Pseudomonas sp. [7]): 90.9% | MIC50 [8]: 4 µg/mL (≈ 6.83 µM) | MIC90 [8]: 8 µg/mL (≈ 13.7 µM) | Activity (Klebsiella aerogenes [9]): 55% | Activity (Enterobacter cloacae [10]): 63.2% | Activity (Haemophilus influenzae [11]): inactive | Activity (Proteus mirabilis [12]): 63.6% | MIC50 (Staphylococcus aureus [13]): 1 µg/mL (≈ 1.71 µM) | MIC90 (Staphylococcus aureus [13]): 2 µg/mL (≈ 3.42 µM) | MIC50 (Citrobacter freundii [14]): 2 µg/mL (≈ 3.42 µM) | MIC90 (Citrobacter freundii [14]): 32 µg/mL (≈ 54.6 µM) | MIC50 (Haemophilus influenzae [15]): 8 µg/mL (≈ 13.7 µM) | MIC90 (Haemophilus influenzae [15]): 16 µg/mL (≈ 27.3 µM) | Activity (Klebsiella aerogenes [16]): 100% | MIC50 (Staphylococcus aureus [17]): 8 µg/mL (≈ 13.7 µM) | MIC90 (Staphylococcus aureus [17]): 128 µg/mL (≈ 219 µM) | MIC50 (Enterobacter cloacae [18]): 16 µg/mL (≈ 27.3 µM) | MIC90 (Enterobacter cloacae [18]): 32 µg/mL (≈ 54.6 µM) | Activity [19]: 98% | Activity (Staphylococcus aureus [20]): 100% | MIC50 (Pseudomonas aeruginosa [21]): 8 µg/mL (≈ 13.7 µM) | MIC90 (Pseudomonas aeruginosa [21]): 32 µg/mL (≈ 54.6 µM) | MIC50 (Pseudomonas aeruginosa [22]): 4 µg/mL (≈ 6.83 µM) | MIC90 (Pseudomonas aeruginosa [22]): 16 µg/mL (≈ 27.3 µM) | Activity (Enterococcus faecalis [23]): inactive | MIC50 (Serratia marcescens): > 128 µg/mL | MIC90 (Serratia marcescens): > 128 µg/mL | Activity (Escherichia coli [24]): 100% | Activity (Pseudomonas aeruginosa [25]): 100% | MIC50 (Pseudomonas sp. [26]): > 128 µg/mL | MIC90 (Pseudomonas sp. [26]): > 128 µg/mL | Activity (Escherichia coli [27]): 93% | Activity (Enterobacter cloacae [28]): 96.4% | MIC50 (Pseudomonas sp. [29]): 4 µg/mL (≈ 6.83 µM) | MIC90 (Pseudomonas sp. [29]): 16 µg/mL (≈ 27.3 µM) | MIC50 [30]: 4 µg/mL (≈ 6.83 µM) | MIC90 [30]: 64 µg/mL (≈ 109 µM) | Activity [31]: 73.1% | MIC50 [32]: 0.5 µg/mL (≈ 0.854 µM) | MIC90 [32]: 2 µg/mL (≈ 3.42 µM) | Activity (Providencia rettgeri [33]): 84.6% | MIC50 (Morganella morganii [34]): 1 µg/mL (≈ 1.71 µM) | MIC90 (Morganella morganii [34]): 4 µg/mL (≈ 6.83 µM) | Activity (Pseudomonas aeruginosa [35]): 85.3% | Activity (Staphylococcus aureus [36]): 80.6% | Activity (Providencia rettgeri [37]): 80% | MIC50 (Escherichia coli [38]): 1 µg/mL (≈ 1.71 µM) | MIC90 (Escherichia coli [38]): 2 µg/mL (≈ 3.42 µM) | MIC50 (Enterococcus faecalis [39]): 128 µg/mL (≈ 219 µM) | MIC90 (Enterococcus faecalis [39]): > 128 µg/mL | Activity (Morganella morganii [40]): 83.3% | Activity (Citrobacter koseri [41]): 100% | MIC50 (Citrobacter freundii [42]): 2 µg/mL (≈ 3.42 µM) | MIC90 (Citrobacter freundii [42]): 4 µg/mL (≈ 6.83 µM) | Activity (Pseudomonas sp. [43]): 7.7%
